Experimental data: article PMC5374673, “Activity of the novel BCR kinase inhibitor IQS019 in preclinical models of B-cell non-Hodgkin lymphoma” (Journal of Hematology & Oncology, 2017)

Columns and labels:
Assay type in all cases: biochemical
Bmx = target: T1, Bmx (Homo sapiens, UniProt P51813); assay: 400-kinase panel, residual activity at […]
T1 sequence (P51813 1-675): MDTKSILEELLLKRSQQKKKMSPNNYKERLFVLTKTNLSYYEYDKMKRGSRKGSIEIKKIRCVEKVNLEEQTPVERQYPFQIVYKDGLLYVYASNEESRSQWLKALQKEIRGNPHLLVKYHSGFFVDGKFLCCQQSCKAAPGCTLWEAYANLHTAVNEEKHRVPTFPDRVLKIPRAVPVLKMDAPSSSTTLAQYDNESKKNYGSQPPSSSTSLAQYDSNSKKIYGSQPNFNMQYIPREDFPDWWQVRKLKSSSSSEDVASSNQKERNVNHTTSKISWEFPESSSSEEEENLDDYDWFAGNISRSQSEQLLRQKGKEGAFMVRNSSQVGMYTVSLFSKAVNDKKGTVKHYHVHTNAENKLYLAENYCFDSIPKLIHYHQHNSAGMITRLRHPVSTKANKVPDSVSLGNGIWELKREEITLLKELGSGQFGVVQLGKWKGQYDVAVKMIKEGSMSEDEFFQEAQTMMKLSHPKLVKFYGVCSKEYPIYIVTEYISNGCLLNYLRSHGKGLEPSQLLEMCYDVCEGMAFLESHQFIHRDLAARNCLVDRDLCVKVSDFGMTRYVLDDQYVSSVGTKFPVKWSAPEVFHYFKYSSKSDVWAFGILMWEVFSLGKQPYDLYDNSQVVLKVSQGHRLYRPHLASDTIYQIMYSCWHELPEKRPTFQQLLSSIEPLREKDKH

Lyn = Lyn (Homo sapiens, UniProt P07948); assay: radiometric kinase assay and 400-kinase panel (ProQinase); also Ba/F3 cells expressing the kinase domain
Syk = Syk (Homo sapiens, UniProt P43405); assay: as above
Btk = Btk (Homo sapiens, UniProt Q06187); assay: as above
Chain of Btk (Q06187 2-659): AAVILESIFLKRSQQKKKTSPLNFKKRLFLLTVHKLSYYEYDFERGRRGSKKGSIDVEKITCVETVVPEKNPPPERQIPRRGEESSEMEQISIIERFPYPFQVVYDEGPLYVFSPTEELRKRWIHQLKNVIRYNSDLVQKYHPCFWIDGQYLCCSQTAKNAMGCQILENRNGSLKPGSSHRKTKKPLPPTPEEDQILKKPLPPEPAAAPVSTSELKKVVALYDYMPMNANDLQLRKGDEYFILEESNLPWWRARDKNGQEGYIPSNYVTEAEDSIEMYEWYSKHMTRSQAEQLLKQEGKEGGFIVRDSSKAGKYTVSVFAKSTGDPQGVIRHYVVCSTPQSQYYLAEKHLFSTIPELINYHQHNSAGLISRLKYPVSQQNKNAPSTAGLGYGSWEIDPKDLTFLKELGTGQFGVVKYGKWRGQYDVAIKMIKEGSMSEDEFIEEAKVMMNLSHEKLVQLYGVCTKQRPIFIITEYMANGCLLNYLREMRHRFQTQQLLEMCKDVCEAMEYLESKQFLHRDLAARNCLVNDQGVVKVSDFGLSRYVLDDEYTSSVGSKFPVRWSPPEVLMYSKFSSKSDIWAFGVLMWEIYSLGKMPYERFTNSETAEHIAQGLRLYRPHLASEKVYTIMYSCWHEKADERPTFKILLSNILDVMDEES

Chain of Lyn (P07948 2-512): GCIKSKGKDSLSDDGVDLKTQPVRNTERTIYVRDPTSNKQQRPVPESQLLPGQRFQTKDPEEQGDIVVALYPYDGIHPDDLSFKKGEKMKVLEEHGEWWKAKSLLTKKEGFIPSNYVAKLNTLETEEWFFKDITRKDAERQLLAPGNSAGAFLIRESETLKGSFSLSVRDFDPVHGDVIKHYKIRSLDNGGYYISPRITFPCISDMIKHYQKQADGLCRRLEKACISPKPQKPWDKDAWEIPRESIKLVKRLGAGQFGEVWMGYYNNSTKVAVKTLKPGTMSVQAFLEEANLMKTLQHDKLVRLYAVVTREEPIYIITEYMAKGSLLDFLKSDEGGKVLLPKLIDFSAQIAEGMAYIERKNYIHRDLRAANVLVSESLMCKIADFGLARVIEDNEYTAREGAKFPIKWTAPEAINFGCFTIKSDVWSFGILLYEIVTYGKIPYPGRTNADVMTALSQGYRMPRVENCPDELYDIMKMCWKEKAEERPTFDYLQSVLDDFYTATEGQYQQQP

IC50 (Lyn): 150 nM
IC50 (Syk): 1600 nM
IC50 (Btk): 2100 nM
SMILES: CN1CCN(c2ccc(Nc3nc(N)c4cc(-c5c(Cl)cccc5Cl)c(=O)n(C)c4n3)cc2)CC1 [compound 19, IQS019]
400-kinase panel, residual activity at 0.1 and 10 μM (Bmx): the member of the Tec family of non-receptor tyrosine kinases, Bmx
